In US12162890B2 (Novartis AG, priority 2015, dated 2024):

target: HEK293 cells with stable expression of the GRIN1 gene and tetracycline-inducible expression of the GRIN2B gene (NMDA receptor, NR2B) (Homo sapiens, UniProt Q13224); experiment: Fluo-8 Ca2+ flux assay: reversal of Ro 25-6981-mediated suppression of the Ca2+ response to co-agonist (glutamate/glycine); type: cell-based; conditions: reversal of the Ro 25-6981 suppression of the Ca2+ response to co-agonist (glutamate/glycine); note: test concentration or dose not given here
Sequence (Q13224 27-1484, other chains not shown): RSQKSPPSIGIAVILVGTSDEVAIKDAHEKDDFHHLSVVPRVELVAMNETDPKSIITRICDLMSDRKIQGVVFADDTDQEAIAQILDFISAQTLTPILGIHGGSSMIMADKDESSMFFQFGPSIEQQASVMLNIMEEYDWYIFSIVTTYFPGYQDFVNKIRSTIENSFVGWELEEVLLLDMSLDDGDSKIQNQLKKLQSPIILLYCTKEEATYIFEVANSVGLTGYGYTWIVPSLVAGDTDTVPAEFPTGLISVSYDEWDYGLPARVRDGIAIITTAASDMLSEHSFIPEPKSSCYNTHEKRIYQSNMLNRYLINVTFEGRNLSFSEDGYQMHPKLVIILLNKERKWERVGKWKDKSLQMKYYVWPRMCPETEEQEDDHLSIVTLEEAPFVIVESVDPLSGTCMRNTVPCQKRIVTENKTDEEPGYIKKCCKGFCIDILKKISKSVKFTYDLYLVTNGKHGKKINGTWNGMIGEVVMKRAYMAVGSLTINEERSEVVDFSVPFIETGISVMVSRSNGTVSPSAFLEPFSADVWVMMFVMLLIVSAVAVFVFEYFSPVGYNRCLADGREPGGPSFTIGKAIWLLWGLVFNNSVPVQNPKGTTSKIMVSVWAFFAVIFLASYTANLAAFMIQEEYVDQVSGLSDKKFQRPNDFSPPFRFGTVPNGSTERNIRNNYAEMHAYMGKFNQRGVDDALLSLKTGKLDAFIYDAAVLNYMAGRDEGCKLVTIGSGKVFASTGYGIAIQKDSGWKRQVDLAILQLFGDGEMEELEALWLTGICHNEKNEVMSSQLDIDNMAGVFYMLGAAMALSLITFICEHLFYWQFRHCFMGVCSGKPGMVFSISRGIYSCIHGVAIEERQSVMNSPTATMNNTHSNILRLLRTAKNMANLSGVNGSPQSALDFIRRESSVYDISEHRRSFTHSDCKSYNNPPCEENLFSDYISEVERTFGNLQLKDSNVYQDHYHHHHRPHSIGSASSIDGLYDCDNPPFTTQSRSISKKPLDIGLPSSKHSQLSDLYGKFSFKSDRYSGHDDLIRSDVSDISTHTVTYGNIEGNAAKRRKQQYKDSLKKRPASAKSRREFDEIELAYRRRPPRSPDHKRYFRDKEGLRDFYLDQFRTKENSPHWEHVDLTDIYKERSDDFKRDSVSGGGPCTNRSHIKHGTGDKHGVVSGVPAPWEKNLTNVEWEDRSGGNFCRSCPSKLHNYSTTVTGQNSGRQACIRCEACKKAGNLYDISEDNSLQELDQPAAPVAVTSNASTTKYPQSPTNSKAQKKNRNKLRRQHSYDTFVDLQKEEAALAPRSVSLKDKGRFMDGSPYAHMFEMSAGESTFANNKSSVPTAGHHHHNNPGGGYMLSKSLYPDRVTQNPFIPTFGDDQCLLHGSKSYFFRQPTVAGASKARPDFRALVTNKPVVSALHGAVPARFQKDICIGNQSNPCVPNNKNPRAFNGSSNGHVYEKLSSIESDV

Compound	Response Recovered (%)
O=C(Cn1ccn2ncc(-c3ccc(F)c(C(F)(F)F)c3)c2c1=O)N1CCC(F)C1 (centres unmarked) [Example 321, 3-(4-fluoro-3-(trifluoromethyl)phenyl)-5-(2-(3-fluoropyrrolidin-1-yl)-2-oxoethyl)pyrazolo[1,5-a]pyrazin-4(5H)-one]	46
CN(C)CCn1cc(-c2ccc(F)c(Cl)c2)c2c(=O)n(CC(=O)N3CCC(F)C3)ccc21 (centres unmarked) [Example 245, 3-(3-chloro-4-fluorophenyl)-1-(2-(dimethylamino)ethyl)-5-(2-(3-fluoropyrrolidin-1-yl)-2-oxoethyl)-1H-pyrrolo[3,2-c]pyridin-4(5H)-one]	14
O=C(Cn1cc(CN2CCCC2)c2scc(-c3ccc(Cl)c(Cl)c3)c2c1=O)N1CCC(F)C1 (centres unmarked) [Example 121, 3-(3,4-dichlorophenyl)-5-(2-(3-fluoropyrrolidin-1-yl)-2-oxoethyl)-7-(pyrrolidin-1-ylmethyl)thieno[3,2-c]pyridin-4(5H)-one]	59
CCC1(F)CN(C(=O)Cn2ccc3c(c(-c4cnc(Cl)c(Cl)c4)cn3C3CC3)c2=O)C1 [Example 294, 1-cyclopropyl-3-(5,6-dichloropyridin-3-yl)-5-(2-(3-ethyl-3-fluoroazetidin-1-yl)-2-oxoethyl)-1,5-dihydro-4H-pyrrolo[3,2-c]pyridin-4-one]	88
O=C(Cn1ccc2c(c(-c3ccc(F)c(Cl)c3)cn2C2COC2)c1=O)N1CCC(F)C1 (centres unmarked) [Example 261, 3-(3-chloro-4-fluorophenyl)-5-(2-(3-fluoropyrrolidin-1-yl)-2-oxoethyl)-1-(oxetan-3-yl)-1H-pyrrolo[3,2-c]pyridin-4(5H)-one]	29
O=C(Cn1ccc2ccc(-c3ccc(Cl)c(C(F)(F)F)c3)cc2c1=O)N1CCCC1 [Example 310, 7-(4-chloro-3-(trifluoromethyl)phenyl)-2-(2-oxo-2-(pyrrolidin-1-yl)ethyl)isoquinolin-1(2H)-one]	3
CCC1(F)CN(C(=O)Cn2ccc3scc(-c4cnc(F)c(C)c4)c3c2=O)C1 [Example 88, 5-(2-(3-ethyl-3-fluoroazetidin-1-yl)-2-oxoethyl)-3-(6-fluoro-5-methylpyridin-3-yl)thieno[3,2-c]pyridin-4(5H)-one]	20
O=C(Cn1cnc2onc(-c3ccc(Cl)cc3)c2c1=O)N1CCCC1 [Example 383, 3-(4-chlorophenyl)-5-(2-oxo-2-(pyrrolidin-1-yl)ethyl)isoxazolo[5,4-d]pyrimidin-4(5H)-one]	1
O=C(Cn1ccc2c(c(-c3ccc(Cl)c(Cl)c3)cn2CC(F)(F)F)c1=O)N1CCC(F)C1 (centres unmarked) [Example 275, 3-(3,4-dichlorophenyl)-5-(2-(3-fluoropyrrolidin-1-yl)-2-oxoethyl)-1-(2,2,2-trifluoroethyl)-1H-pyrrolo[3,2-c]pyridin-4(5H)-one]	100
CCC1(F)CN(C(=O)Cn2cc(C)n3ccc(-c4ccc(F)c(Cl)c4)c3c2=O)C1 [Example 418, 8-(3-chloro-4-fluorophenyl)-2-(2-(3-ethyl-3-fluoroazetidin-1-yl)-2-oxoethyl)-4-methylpyrrolo[1,2-a]pyrazin-1(2H)-one]	74
O=C(Cn1ccc2c(c(-c3ccc(Cl)c(C(F)(F)F)c3)cn2-c2ccccn2)c1=O)N1CCC(F)C1 (centres unmarked) [Example 224, 3-(4-chloro-3-(trifluoromethyl)phenyl)-5-(2-(3-fluoropyrrolidin-1-yl)-2-oxoethyl)-1-(pyridin-2-yl)-1H-pyrrolo[3,2-c]pyridin-4(5H)-one]	109
CCC1(F)CN(C(=O)Cn2cc(C)n3ccc(-c4cnc(Cl)c(Cl)c4)c3c2=O)C1 [Example 422, 8-(5,6-dichloropyridin-3-yl)-2-(2-(3-ethyl-3-fluoroazetidin-1-yl)-2-oxoethyl)-4-methylpyrrolo[1,2-a]pyrazin-1(2H)-one]	29
CC1(F)CN(C(=O)Cn2cnn3cnc(-c4ccc(Cl)c(Cl)c4)c3c2=O)C1 [Example 425, 5-(3,4-dichlorophenyl)-3-(2-(3-fluoro-3-methylazetidin-1-yl)-2-oxoethyl)imidazo[5,1-f][1,2,4]triazin-4(3H)-one]	27
Cc1cc(-c2cn(C3CC3)c3ccn(CC(=O)N4CC(C)(F)C4)c(=O)c23)ccc1F [Example 290, 1-cyclopropyl-5-(2-(3-fluoro-3-methylazetidin-1-yl)-2-oxoethyl)-3-(4-fluoro-3-methylphenyl)-1H-pyrrolo[3,2-c]pyridin-4(5H)-one]	120
O=C(Cn1ccn2ccc(-c3cnc(Cl)c(Cl)c3)c2c1=O)N1CC(F)(CF)C1 [Example 406, 8-(5,6-dichloropyridin-3-yl)-2-(2-(3-fluoro-3-(fluoromethyl)azetidin-1-yl)-2-oxoethyl)pyrrolo[1,2-a]pyrazin-1(2H)-one]	85
COCn1cc(-c2ccc(F)c(C(F)(F)F)c2)c2c(=O)n(CC(=O)N3CC(F)C(F)C3)ccc21 (centres unmarked) [Example 242, 5-(2-(3,4-difluoropyrrolidin-1-yl)-2-oxoethyl)-3-(4-fluoro-3-(trifluoromethyl)phenyl)-1-(methoxymethyl)-1H-pyrrolo[3,2-c]pyridin-4(5H)-one]	110
O=C(Cn1ccc2cccc(-c3ccc(Cl)c(F)c3)c2c1=O)N1CCCC1 [Example 307, 8-(4-chloro-3-fluorophenyl)-2-(2-oxo-2-(pyrrolidin-1-yl)ethyl)isoquinolin-1(2H)-one]	24
O=C(Cn1ccc2[nH]cc(-c3ccc(Cl)c(F)c3)c2c1=O)N1CCC(F)C1 (centres unmarked) [Example 204, 3-(4-chloro-3-fluorophenyl)-5-(2-(3-fluoropyrrolidin-1-yl)-2-oxoethyl)-1H-pyrrolo[3,2-c]pyridin-4(5H)-one]	47

Now from value to compound:

Response Recovered (%)	Compound
17	CC1(F)CN(C(=O)Cn2ccc3scc(-c4cnc(C#N)c(Cl)c4)c3c2=O)C1 [Example 136, 3-chloro-5-(5-(2-(3-fluoro-3-methylazetidin-1-yl)-2-oxoethyl)-4-oxo-4,5-dihydrothieno[3,2-c]pyridin-3-yl)picolinonitrile]
120	CC1(F)CN(C(=O)Cn2ccc3scc(-c4ccc(Cl)c(C(F)(F)F)c4)c3c2=O)C1 [Example 21, 3-(4-chloro-3-(trifluoromethyl)phenyl)-5-(2-(3-fluoro-3-methylazetidin-1-yl)-2-oxoethyl)thieno[3,2-c]pyridin-4(5H)-one]
4.4	O=C(Cn1ccc2scc(-c3ccc(F)c(Cl)c3)c2c1=O)N1CC2(COC2)C1 [Example 67, 3-(3-chloro-4-fluroophenyl)-5-(2-oxo-2-(2-oxa-6-azaspiro[3.3]heptan-6-yl)ethyl)thieno[3,2-c]pyridin-4(5H)-one]
13	O=C(Cn1ccc2scc(-c3ccc(F)c(Cl)c3)c2c1=O)N1CC2C(C1)C2(F)F (centres unmarked) [Example 65, 3-(3-chloro-4-fluorophenyl)-5-(2-(6,6-difluoro-3-azabicyclo[3.1.0]hex-an-3-yl)-2-oxoethyl)thieno[3,2-c]pyridin-4(5H)-one]
16	Cc1cc(-c2csc3ccn(CC(=O)N4CC(F)(CF)C4)c(=O)c23)cnc1F [Example 89, 5-(2-(3-fluoro-3-(fluoromethyl)azetidin-1-yl)-2-oxoethyl)-3-(6-fluoro-5-methylpyridin-3-yl)thieno[3,2-c]pyridin-4(5H)-one]
63	O=C(Cn1ccc2scc(-c3ccc(F)c(Cl)c3)c2c1=O)N1CC(F)(C2CC2)C1 [Example 44, 3-(3-chloro-4-fluorophenyl)-5-(2-(3-cyclopropyl-3-fluoroazetidin-1-yl)-2-oxoethyl)thieno[3,2-c]pyridin-4(5H)-one]
4.7	CC1(NC(=O)OC(C)(C)C)CN(C(=O)Cn2ccc3scc(-c4ccc(F)c(Cl)c4)c3c2=O)C1 [Example 74, tert-butyl (1-(2-(3-(3-chloro-4-fluorophenyl)-4-oxothieno[3,2-c]pyridin-5(4H)-yl)acetyl)-3-methylazetidin-3-yl)carbamate]
96	CCC1(F)CN(C(=O)Cn2ccc3scc(-c4ccc(Cl)c(Cl)c4)c3c2=O)C1 [Example 50, 3-(3,4-dichlorophenyl)-5-(2-(3-ethyl-3-fluoroazetidin-1-yl)-2-oxoethyl)thieno[3,2-c]pyridin-4(5H)-one]
139	O=C(Cn1ccc2scc(-c3ccc(Cl)c(C(F)(F)F)c3)c2c1=O)N1CC(F)(F)C1 [Example 5, 3-(4-chloro-3-(trifluoromethyl)phenyl)-5-(2-(3,3-difluoroazetidin-1-yl)-2-oxoethyl)thieno[3,2-c]pyridin-4(5H)-one]
73	CC1(F)CN(C(=O)Cn2ccc3c(c(-c4ccc(F)c(Cl)c4)cn3CC(F)(F)F)c2=O)C1 [Example 280, 3-(3-chloro-4-fluorophenyl)-5-(2-(3-fluoro-3-methylazetidin-1-yl)-2-oxoethyl)-1-(2,2,2-trifluoroethyl)-1H-pyrrolo[3,2-c]pyridin-4(5H)-one]
10	N#Cc1ncc(-c2csc3ccn(CC(=O)N4CC(F)(CF)C4)c(=O)c23)cc1Cl [Example 138, 3-chloro-5-(5-(2-(3-fluoro-3-(fluoromethyl)azetidin-1-yl)-2-oxoethyl)-4-oxo-4,5-dihydrothieno[3,2-c]pyridin-3-yl)picolinonitrile]
39	O=C(Cn1cnc2csc(-c3ccc(F)c(Cl)c3)c2c1=O)N1CC(F)(F)C1 [Example 360, 5-(3-chloro-4-fluorophenyl)-3-(2-(3,3-difluoroazetidin-1-yl)-2-oxoethyl)thieno[3,4-d]pyrimidin-4(3H)-one]
64	O=C(Cn1ccc2scc(-c3ccc(F)c(C(F)(F)F)c3)c2c1=O)N1CC2(CC2)C1 [Example 80, 3-(4-fluoro-3-(trifluoromethyl)phen-yl)-5-(2-oxo-2-(5-azaspiro[2.3]hexan-5-yl)ethyl)thieno[3,2-c]pyridin-4(5H)-one]
32	O=C(Cn1cc(-c2ccncc2)c2scc(-c3ccc(Cl)c(C(F)(F)F)c3)c2c1=O)N1CCCC1 [Example 103, 3-(4-chloro-3-(trifluoromethyl)phenyl)-5-(2-oxo-2-(pyrrolidin-1-yl)ethyl)-7-(pyridin-4-yl)thieno[3,2-c]pyridin-4(5H)-one]
